Test results reported in US11608353B2, “Amylase inhibitor compounds, methods of their use and compositions thereof” (THE UNIVERSITY OF BRITISH COLUMBIA, priority 2016, dated 2023).
Substitutions are numbered along the chain they refer to. Values joined by “and” are separate entries in the source; they are usually repeats but may differ in a detail not shown here. Equal entries are not always repeated. Where two headings read alike, the source gives them in different places.

Legend:
[1] = molecular target: T1, human pancreatic α-amylase (HPA) (Homo sapiens, UniProt P04746); experiment: Inhibition of wild-type human pancreatic α-amylase (HPA), kinetic KI determination with CNP-G3; format: biochemical
T1 construct: made in house; host or cells: Pichia pastoris strain GM5011
T1 sequence (P04746 16-511): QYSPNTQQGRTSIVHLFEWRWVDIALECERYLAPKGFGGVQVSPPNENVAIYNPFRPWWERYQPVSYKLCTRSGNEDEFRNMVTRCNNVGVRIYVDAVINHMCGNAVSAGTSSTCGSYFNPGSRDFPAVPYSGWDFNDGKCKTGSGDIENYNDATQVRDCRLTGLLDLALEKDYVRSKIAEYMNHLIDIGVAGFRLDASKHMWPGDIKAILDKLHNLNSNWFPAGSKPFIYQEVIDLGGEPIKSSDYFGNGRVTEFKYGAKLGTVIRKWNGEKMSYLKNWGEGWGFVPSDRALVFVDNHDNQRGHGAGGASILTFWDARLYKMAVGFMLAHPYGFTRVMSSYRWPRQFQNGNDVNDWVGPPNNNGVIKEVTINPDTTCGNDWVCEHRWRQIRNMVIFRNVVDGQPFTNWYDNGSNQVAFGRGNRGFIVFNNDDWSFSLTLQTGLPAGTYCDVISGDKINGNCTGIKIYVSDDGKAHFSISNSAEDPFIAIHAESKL

H299N HPA = molecular target: T2, H299N HPA (Homo sapiens, UniProt P04746, H314N); experiment: Inhibition of H299N variant HPA, kinetic KI determination; format: biochemical; settings: variant used for co-crystallization; read-out: KI for inhibition of the H299N HPA variant enzyme
T2 construct: made in house; host or cells: Pichia pastoris strain GM5011
T2 sequence (P04746 16-511 H314N): T1 sequence (P04746 16-511) with H299N
Description: Kinetic Studies. The inhibition constants (KI) of montbretins A-E and MbA substructures for wild-type HPA, along with MbA for H299N HPA were determined by measuring the rates of reactions at different inhibitor and substrate concentrations. […] 2-Chloro-4-nitrophenyl α-D-maltotrioside (CNP-G3) was used as the substrate in a similar range of concentrations. Initial reaction rates for the release of chloronitrophenolate were measured and the further progress of substrate cleavage monitored continuously. Reactions were performed on a Varian Cary 4000 UV/Vis spectrophotometer at 400 nm and 30° C. Observed reaction rates were fitted directly to various inhibition models using GraFit version 5.0.13 and KI values were determined. Competitive inhibition provided the best fit in each case.

[2] = molecular target: Roseburia inulinivorans Amy A (Roseburia inulinivorans, UniProt A0ACG1Y5C3); experiment: Inhibition of gut bacterial amylase Roseburia inulinivorans Amy A; format: biochemical; settings: for Ki: GH family 13
[3] = molecular target: Butyrivibrio fibrisolvens Amy B; experiment: Inhibition of gut bacterial amylase Butyrivibrio fibrisolvens Amy B; format: biochemical
Homo sapiens ntMGAM = molecular target: T3, Homo sapiens ntMGAM (Homo sapiens, UniProt O43451); experiment: Inhibition of N-terminal domain of maltase glucoamylase; format: biochemical; settings: for Ki: GH family 31
T3 construct: Homo sapiens ntMGAM

H. sapiens ctMGAM = molecular target: T4, H. sapiens ctMGAM (Homo sapiens, UniProt O43451); experiment: Inhibition of C-terminal domain of maltase-glucoamylase; format: biochemical; settings: for Ki: GH family 31
T4 construct: H. sapiens ctMGAM

H. sapiens ctSI = molecular target: T5, H. sapiens ctSI (Homo sapiens, UniProt P14410); experiment: Inhibition of C-terminal domain of sucrose-isomaltase; format: biochemical
T5 construct: H. sapiens ctSI

[4] = molecular target: T1, human pancreatic α-amylase (HPA); settings: literature value, reference (5); read-out: Ki, binds to HPA; cited from earlier work
diabetic rat model = settings: McNeill, unpublished data; cited from earlier work
[5] = Tables 4 and 5, read-out: Ki (HPA Inhibition)
[6] = Table 6, GH family 13, mean ± s.d., read-out: Ki (nM), HPA
[7] = wild-type HPA, CNP-G3 substrate, pH 7.0, 30° C., competitive inhibition model, read-out: Ki of HPA
[8] = tested at 500 μM, read-out: Ki with MbA
[9] = tested at 100 μM, read-out: Ki With MbA-GRX

T4 sequence (O43451 1221-1632 limits assumed): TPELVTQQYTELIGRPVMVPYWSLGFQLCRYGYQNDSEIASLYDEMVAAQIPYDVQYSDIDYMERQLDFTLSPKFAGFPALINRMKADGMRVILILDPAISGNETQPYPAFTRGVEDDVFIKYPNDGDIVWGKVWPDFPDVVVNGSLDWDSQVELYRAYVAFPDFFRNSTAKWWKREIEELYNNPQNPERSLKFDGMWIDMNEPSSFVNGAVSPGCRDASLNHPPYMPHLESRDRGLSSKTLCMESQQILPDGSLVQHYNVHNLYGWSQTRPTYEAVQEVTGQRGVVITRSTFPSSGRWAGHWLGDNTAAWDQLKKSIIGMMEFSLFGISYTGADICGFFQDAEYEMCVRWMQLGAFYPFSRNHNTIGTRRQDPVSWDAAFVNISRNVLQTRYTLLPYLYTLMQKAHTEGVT
T3 sequence (O43451 356-737 limits assumed): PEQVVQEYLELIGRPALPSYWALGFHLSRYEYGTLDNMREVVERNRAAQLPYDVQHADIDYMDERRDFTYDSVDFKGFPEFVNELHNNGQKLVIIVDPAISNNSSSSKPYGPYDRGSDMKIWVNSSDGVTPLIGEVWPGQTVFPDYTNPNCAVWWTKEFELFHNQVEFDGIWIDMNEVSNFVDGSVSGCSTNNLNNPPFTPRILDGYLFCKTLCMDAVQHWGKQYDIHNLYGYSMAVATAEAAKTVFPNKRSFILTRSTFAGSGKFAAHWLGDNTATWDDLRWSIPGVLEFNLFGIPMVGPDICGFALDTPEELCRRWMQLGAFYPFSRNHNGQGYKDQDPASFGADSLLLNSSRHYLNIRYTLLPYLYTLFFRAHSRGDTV
T5 sequence (P14410 1008-1827 limits assumed): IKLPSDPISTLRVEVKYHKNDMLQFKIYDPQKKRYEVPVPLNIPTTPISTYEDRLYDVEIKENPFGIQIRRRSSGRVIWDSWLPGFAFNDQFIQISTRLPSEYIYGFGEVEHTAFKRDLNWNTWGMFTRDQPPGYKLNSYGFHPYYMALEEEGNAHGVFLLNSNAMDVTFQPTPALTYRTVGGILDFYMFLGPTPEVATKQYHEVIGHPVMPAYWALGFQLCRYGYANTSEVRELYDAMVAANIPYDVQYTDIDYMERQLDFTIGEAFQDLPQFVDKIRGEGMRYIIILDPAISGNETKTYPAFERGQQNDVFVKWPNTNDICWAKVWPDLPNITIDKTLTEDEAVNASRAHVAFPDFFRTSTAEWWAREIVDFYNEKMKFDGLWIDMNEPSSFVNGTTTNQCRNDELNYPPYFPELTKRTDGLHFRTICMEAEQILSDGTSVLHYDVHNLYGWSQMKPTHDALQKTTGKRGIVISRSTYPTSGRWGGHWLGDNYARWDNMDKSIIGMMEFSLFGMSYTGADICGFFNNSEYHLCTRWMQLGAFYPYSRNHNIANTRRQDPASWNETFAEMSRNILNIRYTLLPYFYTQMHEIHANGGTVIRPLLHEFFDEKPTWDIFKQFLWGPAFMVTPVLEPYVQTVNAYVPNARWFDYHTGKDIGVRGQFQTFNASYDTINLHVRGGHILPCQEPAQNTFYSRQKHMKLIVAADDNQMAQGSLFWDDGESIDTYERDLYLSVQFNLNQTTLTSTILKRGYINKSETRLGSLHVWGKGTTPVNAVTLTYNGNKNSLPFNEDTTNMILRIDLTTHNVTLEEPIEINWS
Roseburia inulinivorans Amy A, sequence (A0ACG1Y5C3 entry or part of it): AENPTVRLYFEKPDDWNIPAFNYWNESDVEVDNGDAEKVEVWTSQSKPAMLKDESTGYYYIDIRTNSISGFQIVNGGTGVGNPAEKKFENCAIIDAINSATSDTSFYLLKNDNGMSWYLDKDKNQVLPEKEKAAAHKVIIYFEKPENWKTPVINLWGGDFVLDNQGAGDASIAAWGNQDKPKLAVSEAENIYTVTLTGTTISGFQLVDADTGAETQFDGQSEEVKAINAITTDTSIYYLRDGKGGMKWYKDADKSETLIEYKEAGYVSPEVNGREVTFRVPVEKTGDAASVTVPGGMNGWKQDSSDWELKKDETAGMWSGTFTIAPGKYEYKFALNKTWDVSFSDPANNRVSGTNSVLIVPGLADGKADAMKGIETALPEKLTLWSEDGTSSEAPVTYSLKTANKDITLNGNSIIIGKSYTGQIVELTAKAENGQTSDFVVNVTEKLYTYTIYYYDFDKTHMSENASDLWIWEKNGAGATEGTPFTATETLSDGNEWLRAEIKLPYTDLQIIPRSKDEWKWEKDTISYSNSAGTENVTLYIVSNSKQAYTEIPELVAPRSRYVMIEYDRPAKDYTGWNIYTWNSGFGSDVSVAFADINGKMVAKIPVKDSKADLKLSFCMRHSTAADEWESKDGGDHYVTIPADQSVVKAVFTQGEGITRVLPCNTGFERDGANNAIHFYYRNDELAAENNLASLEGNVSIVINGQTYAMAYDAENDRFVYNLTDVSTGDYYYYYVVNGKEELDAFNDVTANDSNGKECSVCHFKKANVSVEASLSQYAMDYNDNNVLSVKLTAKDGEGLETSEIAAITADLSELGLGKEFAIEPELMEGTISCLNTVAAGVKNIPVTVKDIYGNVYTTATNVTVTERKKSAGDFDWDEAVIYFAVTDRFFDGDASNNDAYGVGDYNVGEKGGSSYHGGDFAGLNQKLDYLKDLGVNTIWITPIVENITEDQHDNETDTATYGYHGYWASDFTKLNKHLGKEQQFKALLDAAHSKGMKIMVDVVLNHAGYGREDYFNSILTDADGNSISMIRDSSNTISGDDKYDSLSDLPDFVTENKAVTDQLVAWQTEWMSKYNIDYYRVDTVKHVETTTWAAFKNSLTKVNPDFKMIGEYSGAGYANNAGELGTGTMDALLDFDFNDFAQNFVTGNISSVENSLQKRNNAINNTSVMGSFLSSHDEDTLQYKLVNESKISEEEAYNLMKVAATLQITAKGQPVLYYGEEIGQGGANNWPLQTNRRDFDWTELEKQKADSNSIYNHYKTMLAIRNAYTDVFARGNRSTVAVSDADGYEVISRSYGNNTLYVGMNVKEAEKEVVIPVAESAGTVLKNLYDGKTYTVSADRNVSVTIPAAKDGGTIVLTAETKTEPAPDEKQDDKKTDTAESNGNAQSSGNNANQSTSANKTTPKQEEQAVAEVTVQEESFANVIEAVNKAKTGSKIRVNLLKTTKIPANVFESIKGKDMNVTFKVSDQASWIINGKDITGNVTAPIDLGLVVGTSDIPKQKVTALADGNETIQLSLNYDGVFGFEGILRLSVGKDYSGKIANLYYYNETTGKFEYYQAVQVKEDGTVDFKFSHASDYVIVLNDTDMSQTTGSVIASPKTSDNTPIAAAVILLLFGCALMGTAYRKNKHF

Molecule: O=C(/C=C/c1ccc(O)c(O)c1)NCCCOc1c(-c2ccc(O)c(O)c2)oc2cc(O)cc(O)c2c1=O [Compound 03]
- Ki [1, 5]: 145000 nM

Molecule: Quercetin/Myricetin
- Ki [1, 5]: 100000 nM

Molecule: O=C(/C=C/c1ccc(O)c(O)c1)N[C@@H]1[C@H](O)[C@@H](O)[C@H](O[C@H]2[C@H](O)[C@@H](O)[C@H](Oc3c(-c4ccc(O)c(O)c4)oc4cc(O)cc(O)c4c3=O)O[C@@H]2CO)O[C@@H]1CO [12 (4-aminoGal)]
- Ki [1, 5]: 45000 nM

Molecule: montbretin A [MbA]
- Ki [1, 6]: 8.1 nM
- Ki [1, 5]: 8 nM
- Ki [1, 7]: 4.4 nM
- Ki (H299N HPA): 124 nM
- inhibition of gut bacterial amylase (in words) [2]: not inhibited at all
- Ki [2, 8]: > 500000 nM
- Ki [3]: 1600 nM
- Ki (Homo sapiens ntMGAM; [8]): > 500000 nM
- inhibition of human maltase-glucoamylase (MGAM) (in words) (Homo sapiens ntMGAM; concentrations up to 500 μM): Neither the human maltase-glucoamylase (MGAM) nor the human sucrose isomaltase (SI) was inhibited
- Ki (H. sapiens ctMGAM; [8]): > 500000 nM
- inhibition of human maltase-glucoamylase (MGAM) (in words) (H. sapiens ctMGAM; concentrations up to 500 μM): Neither the human maltase-glucoamylase (MGAM) nor the human sucrose isomaltase (SI) was inhibited
- Ki (H. sapiens ctSI; GH family 31, tested at 500 μM, read-out: Ki with MbA): > 500000 nM
- inhibition of human sucrose isomaltase (SI) (in words) (H. sapiens ctSI; concentrations up to 500 μM): Neither the human maltase-glucoamylase (MGAM) nor the human sucrose isomaltase (SI) was inhibited
- Ki [4]: 8 nM
- reducing postprandial glucose spiking and delaying the onset of diabetes (diabetic rat model): superior to other inhibitors

Molecule: Montbretin E [MbE]
- inhibitory activity against HPA (in words) [1]: poor inhibitory activity

Molecule: O=C(/C=C/c1ccc(O)c(O)c1)NCCCCCCCOc1c(-c2ccc(O)c(O)c2)oc2cc(O)cc(O)c2c1=O [Compound 05]
- Ki [1, 5]: 4000 nM

Molecule: CC1O[C@@H](Oc2c(-c3cc(O)c(O[C@@H]4OC[C@@H](O)C(O)C4O)c(O)c3)oc3cc(O)cc(O)c3c2=O)C(O[C@@H]2OC(COC(=O)/C=C/c3ccc(O)c(O)c3)[C@@H](O)C(O)C2O)C(O)[C@H]1O (stereo partly drawn) [MbA-1GR]
- Ki [1, 7]: 79 nM and 79.3 nM

Molecule: CC1O[C@@H](Oc2c(-c3cc(O)c(O)c(O)c3)oc3cc(O)cc(O)c3c2=O)C(O[C@@H]2OC(COC(=O)/C=C/c3ccc(O)c(O)c3)[C@@H](O)[C@@H](O)C2O[C@@H]2OC(CO)[C@@H](O)[C@@H](O)C2O)[C@@H](O)[C@H]1O (stereo partly drawn) [MbA-RX]
- Ki [1, 7]: 43 nM and 42.4 nM

Molecule: montbretin C [MbC]
- lower inhibition for HPA than MbB ([1]; relative to MbB): 2 ×

Molecule: O=C(/C=C/c1ccc(O)c(O)c1)NC[C@H]1O[C@@H](O[C@H]2[C@H](O)[C@@H](O)[C@H](Oc3c(-c4ccc(O)c(O)c4)oc4cc(O)cc(O)c4c3=O)O[C@@H]2CO)[C@H](O)[C@@H](O)[C@@H]1O [11 (6-aminoGlc)]
- Ki [1, 5]: 70000 nM

Molecule: montbretin B [MbB]
- decrease in inhibitory activity ([1]; relative to MbA, reference (5)): ~1000 ×

Molecule: CC1O[C@@H](Oc2c(-c3cc(O)c(O)c(O)c3)oc3cc(O)cc(O)c3c2=O)C(O[C@@H]2OC(COC(=O)/C=C/c3ccc(O)c(O)c3)[C@@H](O)[C@@H](O)C2O)[C@@H](O)[C@H]1O (stereo partly drawn) [MbA-1GRX]
- Ki [1, 6]: 93.3 ± 7.6 nM
- poorer at binding to the active site of HPA than the full structure of MbA ([1]; relative to MbA (KI=4.4 nM)): ~25 ×
- Ki [1, 7]: 93 nM and 93.3 nM
- Ki [2, 9]: > 100000 nM
- Ki (Homo sapiens ntMGAM; [9]): > 100000 nM
- inhibition of maltase-glucoamylase (in words) (Homo sapiens ntMGAM; MbA-GRX): No inhibition
- Ki (H. sapiens ctMGAM; [9]): > 100000 nM
- inhibition of maltase-glucoamylase (in words) (H. sapiens ctMGAM; MbA-GRX): No inhibition
- IC50 (H. sapiens ctSI): 75500 nM

Molecule: Montbretin D [MbD]
- inhibitory activity against HPA (in words) [1]: poor inhibitory activity

Molecule: O=C(/C=C/c1ccc(O)c(O)c1)NCCOCCOCCOc1c(-c2ccc(O)c(O)c2)oc2cc(O)cc(O)c2c1=O [Compound 02]
- Ki [1, 5]: 82000 nM
